{"source": "patent US6355799B1", "about": "“Substituted benzene compounds, process for their preparation, and herbicidal and defoliant compositions containing them” (ISK Americas Incorporated, priority 1997, dated 2002)", "assay_type_in_all_cases": "in vivo", "key": {"[1]": {"tested_on": "redroot pigweed (Amaranthus retroflexus, AMARE)", "experiment": "Pre-emerge test, greenhouse herbicide activity screening", "conditions": "rated 14 days after application, 0 = no damage, 100 = complete death", "outline": "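Herbicidal damage is scored 0 (none) to 100 (complete plant death) two weeks after a simulated field spray. Rates span 15–1000 g ai/ha, delivered in acetone at 187 l/ha. For post-emergence treatments, plants have 2–3 leaves and the spray carries 0.25% v/v non-ionic surfactant.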"}, "[2]": {"tested_on": "barnyardgrass (Echinochloa crus-galli, ECHCG)", "experiment": "Pre-emerge test, greenhouse herbicide activity screening", "conditions": "rated 14 days after application, 0 = no damage, 100 = complete death", "outline": "(§1)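 Plants grown in 10 cm pots of sandy loam mix received acetone-dissolved compounds through a moving flat-fan nozzle. Doses ranged from 15 to 1000 g ai/ha. Pre-emerge pots were seeded one day earlier, post-emerge pots 8–21 days earlier. Fourteen days on, each pot was graded 0–100 for damage.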"}, "[3]": {"tested_on": "green foxtail (Setaria viridis, SETVI)", "experiment": "Pre-emerge test, greenhouse herbicide activity screening", "conditions": "rated 14 days after application, 0 = no damage, 100 = complete death", "outline": "as §1"}, "[4]": {"tested_on": "ivyleaf morningglory (Ipomoea hederacea, IPOHE)", "experiment": "Pre-emerge test, greenhouse herbicide activity screening", "conditions": "rated 14 days after application, 0 = no damage, 100 = complete death", "outline": "as §1"}, "[5]": {"tested_on": "johnsongrass (Sorghum halepense, SORHA)", "experiment": "Pre-emerge test, greenhouse herbicide activity screening", "conditions": "rated 14 days after application, 0 = no damage, 100 = complete death", "outline": "as §1"}, "[6]": {"tested_on": "lambsquarters (Chenopodium album, CHEAL)", "experiment": "Pre-emerge test, greenhouse herbicide activity screening", "conditions": "rated 14 days after application, 0 = no damage, 100 = complete death", "outline": "as §1"}, "[7]": {"tested_on": "large crabgrass (Digitaria sanguinalis, DIGSA)", "experiment": "Pre-emerge test, greenhouse herbicide activity screening", "conditions": "rated 14 days after application, 0 = no damage, 100 = complete death", "outline": "as §1"}, "[8]": {"tested_on": "sicklepod (Cassia obtusifolia, CASOB)", "experiment": "Pre-emerge test, greenhouse herbicide activity screening", "conditions": "rated 14 days after application, 0 = no damage, 100 = complete death", "outline": "as §1"}, "[9]": {"tested_on": "velvetleaf (Abutilon theophrasti, ABUTH)", "experiment": "Pre-emerge test, greenhouse herbicide activity screening", "conditions": "rated 14 days after application, 0 = no damage, 100 = complete death", "outline": "as §1"}, "[10]": {"tested_on": "field corn (Zea mays L., var. Dekalb 535, CORN)", "experiment": "Pre-emerge test, crop safety", "conditions": "rated 14 days after application, 0 = no damage, 100 = complete death", "outline": "(§2)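 Applied at 15–1000 g ai/ha from acetone in 187 l/ha spray volume. Post-emergence applications included 0.25% v/v non-ionic surfactant and reached plants sown 8–21 days before. Pre-emergence applications were incorporated by surface watering. Efficacy or crop damage was rated on a 0–100 scale after 14 days.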"}, "[11]": {"tested_on": "upland rice (Oryza sp., var. Tebonnet, RICE)", "experiment": "Pre-emerge test, crop safety", "conditions": "rated 14 days after application, 0 = no damage, 100 = complete death", "outline": "as §2"}, "[12]": {"tested_on": "barnyardgrass (Echinochloa crus-galli, ECHCG)", "experiment": "Post-emerge test, greenhouse herbicide activity screening", "conditions": "post-emerge, 14 days after application, rating scale 0-100", "outline": "(§3)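 Compounds in acetone were track-sprayed at 15-1000 g ai/ha (187 l/ha) on sandy loam pots: pre-emerge one day after seeding, post-emerge at 2-3 leaf stage with 0.25% v/v non-ionic surfactant. Phytotoxicity was rated 14 days later on a 0 (no damage) to 100 (complete death) scale.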"}, "[13]": {"tested_on": "green foxtail (Setaria viridis, SETVI)", "experiment": "Post-emerge test, greenhouse herbicide activity screening", "conditions": "post-emerge, 14 days after application, rating scale 0-100", "outline": "as §3"}, "[14]": {"tested_on": "ivyleaf morningglory (Ipomoea hederacea, IPOHE)", "experiment": "Post-emerge test, greenhouse herbicide activity screening", "conditions": "post-emerge, 14 days after application, rating scale 0-100", "outline": "as §3"}, "[15]": {"tested_on": "johnsongrass (Sorghum halepense, SORHA)", "experiment": "Post-emerge test, greenhouse herbicide activity screening", "conditions": "post-emerge, 14 days after application, rating scale 0-100", "outline": "as §3"}, "[16]": {"tested_on": "lambsquarters (Chenopodium album, CHEAL)", "experiment": "Post-emerge test, greenhouse herbicide activity screening", "conditions": "post-emerge, 14 days after application, rating scale 0-100", "outline": "as §3"}, "[17]": {"tested_on": "large crabgrass (Digitaria sanguinalis, DIGSA)", "experiment": "Post-emerge test, greenhouse herbicide activity screening", "conditions": "post-emerge, 14 days after application, rating scale 0-100", "outline": "as §3"}, "[18]": {"tested_on": "redroot pigweed (Amaranthus retroflexus, AMARE)", "experiment": "Post-emerge test, greenhouse herbicide activity screening", "conditions": "post-emerge, 14 days after application, rating scale 0-100", "outline": "as §3"}, "[19]": {"tested_on": "sicklepod (Cassia obtusifolia, CASOB)", "experiment": "Post-emerge test, greenhouse herbicide activity screening", "conditions": "post-emerge, 14 days after application, rating scale 0-100", "outline": "as §3"}, "[20]": {"tested_on": "velvetleaf (Abutilon theophrasti, ABUTH)", "experiment": "Post-emerge test, greenhouse herbicide activity screening", "conditions": "post-emerge, 14 days after application, rating scale 0-100", "outline": "as §3"}, "[21]": {"tested_on": "field corn (Zea mays L., var. Dekalb 535, CORN)", "experiment": "Post-emerge test, crop safety", "conditions": "post-emerge, 14 days after application, rating scale 0-100", "outline": "(§4)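 Each test used a mechanized track sprayer delivering 187 l/ha of acetone solution at 15–1000 g ai/ha. Post-emerge foliage at 2–3 leaves was treated with added 0.25% v/v non-ionic surfactant and bottom-watered only. Injury was assessed on day 14, where 100 means total kill.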"}, "[22]": {"tested_on": "upland rice (Oryza sp., var. Tebonnet, RICE)", "experiment": "Post-emerge test, crop safety", "conditions": "post-emerge, 14 days after application, rating scale 0-100", "outline": "as §4"}}}
{"smiles": "COc1c(Cl)cc(F)c(-n2c(=O)cc(C(F)(F)F)n(C)c2=O)c1NC(=O)CCc1ccccc1", "note": "[2-86]", "values": [{"measurement": "Pre-emerge Herbicidal Activity, phytotoxicity rating (0-100), AMARE", "setting": "[1]; 63 g ai/ha", "value": 100}, {"measurement": "Pre-emerge Herbicidal Activity, phytotoxicity rating (0-100), AMARE", "setting": "[1]; 250 g ai/ha", "value": 100}, {"measurement": "Pre-emerge Herbicidal Activity, phytotoxicity rating (0-100), ECHCG", "setting": "[2]; 63 g ai/ha", "value": 95}, {"measurement": "Pre-emerge Herbicidal Activity, phytotoxicity rating (0-100), ECHCG", "setting": "[2]; 250 g ai/ha", "value": 100}, {"measurement": "Pre-emerge Herbicidal Activity, phytotoxicity rating (0-100), SETVI", "setting": "[3]; 63 g ai/ha", "value": 100}, {"measurement": "Pre-emerge Herbicidal Activity, phytotoxicity rating (0-100), SETVI", "setting": "[3]; 250 g ai/ha", "value": 100}, {"measurement": "Pre-emerge Herbicidal Activity, phytotoxicity rating (0-100), IPOHE", "setting": "[4]; 63 g ai/ha", "value": 90}, {"measurement": "Pre-emerge Herbicidal Activity, phytotoxicity rating (0-100), IPOHE", "setting": "[4]; 250 g ai/ha", "value": 100}, {"measurement": "Pre-emerge Herbicidal Activity, phytotoxicity rating (0-100), SORHA", "setting": "[5]; 63 g ai/ha", "value": 99}, {"measurement": "Pre-emerge Herbicidal Activity, phytotoxicity rating (0-100), SORHA", "setting": "[5]; 250 g ai/ha", "value": 100}, {"measurement": "Pre-emerge Herbicidal Activity, phytotoxicity rating (0-100), CHEAL", "setting": "[6]; 63 g ai/ha", "value": 100}, {"measurement": "Pre-emerge Herbicidal Activity, phytotoxicity rating (0-100), CHEAL", "setting": "[6]; 250 g ai/ha", "value": 100}, {"measurement": "Pre-emerge Herbicidal Activity, phytotoxicity rating (0-100), DIGSA", "setting": "[7]; 63 g ai/ha", "value": 100}, {"measurement": "Pre-emerge Herbicidal Activity, phytotoxicity rating (0-100), DIGSA", "setting": "[7]; 250 g ai/ha", "value": 100}, {"measurement": "Pre-emerge Herbicidal Activity, phytotoxicity rating (0-100), CASOB", "setting": "[8]; 63 g ai/ha", "value": 100}, {"measurement": "Pre-emerge Herbicidal Activity, phytotoxicity rating (0-100), CASOB", "setting": "[8]; 250 g ai/ha", "value": 95}, {"measurement": "Pre-emerge Herbicidal Activity, phytotoxicity rating (0-100), ABUTH", "setting": "[9]; 63 g ai/ha", "value": 100}, {"measurement": "Pre-emerge Herbicidal Activity, phytotoxicity rating (0-100), ABUTH", "setting": "[9]; 250 g ai/ha", "value": 100}, {"measurement": "Pre-emerge phytotoxicity rating (0-100), crop damage, CORN", "setting": "[10]; 63 g ai/ha", "value": 95}, {"measurement": "Pre-emerge phytotoxicity rating (0-100), crop damage, CORN", "setting": "[10]; 250 g ai/ha", "value": 99}, {"measurement": "Pre-emerge phytotoxicity rating (0-100), crop damage, RICE", "setting": "[11]; 63 g ai/ha", "value": 90}, {"measurement": "Pre-emerge phytotoxicity rating (0-100), crop damage, RICE", "setting": "[11]; 250 g ai/ha", "value": 99}, {"measurement": "phytotoxicity rating ECHCG", "setting": "[12]; 63 g ai/ha", "value": 90}, {"measurement": "phytotoxicity rating ECHCG", "setting": "[12]; 250 g ai/ha", "value": 100}, {"measurement": "phytotoxicity rating SETVI", "setting": "[13]; 63 g ai/ha", "value": 90}, {"measurement": "phytotoxicity rating SETVI", "setting": "[13]; 250 g ai/ha", "value": 100}, {"measurement": "phytotoxicity rating IPOHE", "setting": "[14]; 63 g ai/ha", "value": 100}, {"measurement": "phytotoxicity rating IPOHE", "setting": "[14]; 250 g ai/ha", "value": 100}, {"measurement": "phytotoxicity rating SORHA", "setting": "[15]; 63 g ai/ha", "value": 70}, {"measurement": "phytotoxicity rating SORHA", "setting": "[15]; 250 g ai/ha", "value": 100}, {"measurement": "phytotoxicity rating CHEAL", "setting": "[16]; 63 g ai/ha", "value": 100}, {"measurement": "phytotoxicity rating CHEAL", "setting": "[16]; 250 g ai/ha", "value": 100}, {"measurement": "phytotoxicity rating DIGSA", "setting": "[17]; 63 g ai/ha", "value": 30}, {"measurement": "phytotoxicity rating DIGSA", "setting": "[17]; 250 g ai/ha", "value": 95}, {"measurement": "phytotoxicity rating AMARE", "setting": "[18]; 63 g ai/ha", "value": 100}, {"measurement": "phytotoxicity rating AMARE", "setting": "[18]; 250 g ai/ha", "value": 100}, {"measurement": "phytotoxicity rating CASOB", "setting": "[19]; 63 g ai/ha", "value": 100}, {"measurement": "phytotoxicity rating CASOB", "setting": "[19]; 250 g ai/ha", "value": 100}, {"measurement": "phytotoxicity rating ABUTH", "setting": "[20]; 63 g ai/ha", "value": 100}, {"measurement": "phytotoxicity rating ABUTH", "setting": "[20]; 250 g ai/ha", "value": 100}, {"measurement": "phytotoxicity rating CORN", "setting": "[21]; 63 g ai/ha", "value": 90}, {"measurement": "phytotoxicity rating CORN", "setting": "[21]; 250 g ai/ha", "value": 100}, {"measurement": "phytotoxicity rating RICE", "setting": "[22]; 63 g ai/ha", "value": 80}, {"measurement": "phytotoxicity rating RICE", "setting": "[22]; 250 g ai/ha", "value": 100}]}
